Results reported in patent US7381540B2, “Composition for measuring glucose having improved substrate specificity” (Toyo Boseki Kabushiki Kaisha, priority 2005, dated 2008).

How the values were obtained:
[1] = system: modified PQQGDH; assay: Maltose activity of glucose electrode loaded with modified PQQGDH (oxidation current, potassium ferricyanide mediator); type: biochemical, Acinetobacter baumannii strain NCIMB11517; conditions: for Maltose Activity (%): solute 50 mM, pH 5.5, glucose or maltose 4 mM, 0.1 M potassium ferricyanide, +0.35 V, 25° C.; for Maltose Activity of Glucose Electrode: 50 mM solvent, 1 mM calcium chloride, 0.1% Triton X-100
Protocol: 0.5 g of carbon graphite were placed in a mortar followed by the addition of 0.3 ml of liquid paraffin and kneading with a pestle for 30 minutes to produce a carbon paste. The resulting carbon paste was spread onto a platinum electrode followed by the addition of 10 μl of the modified PQQGDH solution (2,000 U/ml) produced in Example 2 and air drying for 30 minutes at room temperature. A cut cellulose semi-permeable membrane (molecular weight: 8,000) was placed over the dried enzyme electrode and the semi-permeable membrane was immobilized with plastic O-rings. The glucose electrode produced in this manner was then used after preliminarily immersing in the cold reaction solvent for 30 minutes.
The substances listed in Table 1 were used as solutes, and buffers were respectively prepared having a final concentration of 50 mM (pH 5.5). Each of the solvents contained an activator/stabilizer in the form of calcium chloride at 1 mM and surfactant in the form of 0.1% Triton X-100 in addition to the solute listed in Table 1. Potassium ferricyanide was dissolved in each of the produced solvents to a concentration of 0.1 M to prepare reaction solutions.
50 mM phosphoric acid or pimeric acid solution containing 1 mM calcium chloride and 0.1% Triton X-100 (consisting of three types having pH values of 5.0, 6.0 and 7.0, respectively) were prepared. Maltose activity of the glucose electrode was investigated for each according to the method of Example 5.

[2] = system: modified PQQGDH; assay: Substrate specificity using glucose assay system (ferricyanide reduction, absorbance 420 nm); type: biochemical; conditions: for activity with respect to maltose compared with the control (in words): substrate concentration of 4.8 mM, in some cases
Protocol: D-glucose+ferricyanide ion+PQQGDH D-glucono-1,5-lactone+ferrocyanide ion
Specificity to each substrate can be determined by changing D-glucose to other saccharides. The presence of the ferrocyanide ion produced by reduction of the ferricyanide ion was confirmed by measuring the decrease of absorbance at a wavelength of 420 nm by spectrophotometry.
A. […]
B. Potassium ferricyanide solution: 50 mM (0.165 g potassium ferricyanide (molecular weight: 329.25) dissolved in 10 ml of distilled water)
C. PQQGDH solution: 31000 U/ml (approx. 128 mg PQQGDH (Toyobo: GLD-331) dissolved in 5 ml of distilled water)
D. Substrate solution (D-glucose solution or maltose solution): 100 or 400 mM
• 1. The following reaction mixture was prepared in a light shielding bottle, and stored on ice (prepared at use). 48.2 mL of each buffer solution (pH6.5) (A) • 4.0 mL of potassium ferricyanide solution (B) • 0.19 mL of (C) • 2. 2.65 ml of the reaction mixture and 0.3 ml of additive were placed in a test tube (plastic) and pre-warmed for 5 minutes at 37° C. • 3. 0.15 ml of substrate solution (D) were added and mixed gently. • 4. The reduction in the absorbance relative to water at 420 nm was recorded for 1 to 3 minutes with a spectrophotometer while maintaining at a temperature of 37° C., and the ΔOD per minute was calculated from the initial linear portion of the curve (ΔOD test). At the same time, the same procedure was carried out with the exception of adding distilled water instead of glucose solution followed by measurement of the blank (ΔOD blank).
The above-mentioned procedure was carried out at each of the predetermined concentrations shown in Tables 1 to 3 using as additives succinic acid, adipic acid, suberic acid, pimeric acid, potassium chloride, ammonium chloride, diammonium hydrogen citrate, malonic acid, L-lysine, taurine, 3,3-dimethylglutaric acid, malic acid, glutaric acid, calcium glycerate, amino-n-butyric acid, sodium glycolate, sodium α-ketoglutarate, fumaric acid, glycerin, glutamic acid and serine. And the procedure was also carried out for those not containing additives to assess the effects of additives.
Variation in absorbance per unit time was determined by calculating ΔOD/min(ΔOD test−ΔOD blank)
To evaluate whether activity had declined with respect to sugars other than glucose, the ΔOD/min (a) with D-glucose as the substrate solution and the ΔOD/min (b) with the other sugar in place of D-glucose as the substrate solution were measured, and the relative value ((b)/(a)×100) was calculated given 100 as the measurement value with glucose as the substrate.
In each of Tables 3 to 5, in the case the value of the ratio of measured values of maltose and glucose (maltose/glucose) relative to the control (control: no addition) is small, activity with respect to maltose during glucose measurement decreases.

[3] = system: modified PQQGDH; assay: as above; type: biochemical; conditions: potassium phosphate buffer pH 7.0
[4] = Maltose activity of purified PQQGDH by GDH activity measurement (PMS/DCPIP, Test Example 1); type: biochemical, Acinetobacter baumannii strain NCIMB11517; conditions: substrate concentration in the assay mixture 4.8 mM; PIPES-NaOH pH 6.5, 37° C.
Protocol: D-glucose+PMS+PQQGDH→D-glucono-1,5-lactone+PMS (red)
PMS (red)+DCPIP→PMS+DCPIP (red)
The presence of DCPIP (red) formed by reduction of […] (DCPIP) by phenazine methosulfate (PMS) (red) was measured by spectrophotometry at 600 nm.
• A. D-glucose reagent: 1.0 M (1.8 g D-glucose (molecular weight: 180.16)/10 ml H2O) • B. PIPES-NaOH buffer: pH 6.5, 50 mM (1.51 g of PIPES (molecular weight: 302.36) suspended in 60 ml of water dissolved in 5 N NaOH followed by the addition of 2.2 ml of 10% Triton X-100; adjusted to pH of 6.5±0.5 at 25° C. using 5 N NaOH and brought to a final volume of 100 ml by addition of water) • C. PMS solution: 24 mM (73.52 mg of phenazine methosulfate (molecular weight: […])/10 ml H2O) • D. DCPIP solution: 2.0 mM (6.5 mg of […]/10 ml H2O • E. Enzyme diluent: 50 mM PIPES-NaOH buffer containing 1 mM CaCl2, 0.1% Triton X-100 and 0.1% BSA (pH: 6.5) Procedure:
The following reaction mixture was prepared in a light-protected bottle and stored on ice (prepared at the time of use). • 1. […]
The reduction in the absorbance relative to water at 600 nm was recorded for 4 to 5 minutes with a spectrophotometer while maintaining the temperature of the mixture at 37° C., and the ΔOD per minute was calculated from the initial linear portion of the curve (OD test). […]
Activity was calculated using the following formula. […]

[5] = glutaric acid buffer pH 7.0, reagent 0.1%, substrate 4.8 mM, control 0.86
[6] = glutaric acid buffer pH 7.0, reagent 0.1%, substrate 19.2 mM, control 0.94
[7] = glutaric acid buffer pH 7.0, reagent 1%, substrate 4.8 mM, control 0.86
[8] = glutaric acid buffer pH 7.0, reagent 1%, substrate 19.2 mM, control 0.94
[9] = potassium phosphate buffer pH 7.0, reagent 0.5%, substrate 19.2 mM, control 0.93
[10] = potassium phosphate buffer pH 7.0, reagent 1%, substrate 19.2 mM, control 0.93
[11] = reagent 0.5%, substrate 4.8 mM, control 0.85
[12] = reagent 1%, substrate 4.8 mM, control 0.85
[13] = reagent 2%, substrate 4.8 mM, control 0.85
[14] = reagent 2%, substrate 19.2 mM, control 0.93
[15] = phthalic acid buffer pH 7.0, reagent 0.05%, substrate 4.8 mM, control 0.72
[16] = phthalic acid buffer pH 7.0, reagent 0.05%, substrate 19.2 mM, control 0.75
[17] = phthalic acid buffer pH 7.0, reagent 0.1%, substrate 4.8 mM, control 0.72
[18] = phthalic acid buffer pH 7.0, reagent 0.1%, substrate 19.2 mM, control 0.75
[19] = phthalic acid buffer pH 7.0, reagent 0.2%, substrate 4.8 mM, control 0.72
[20] = phthalic acid buffer pH 7.0, reagent 0.2%, substrate 19.2 mM, control 0.75

With `CC(C)(CC(=O)O)CC(=O)O` [3,3-dimethylglutaric acid] the “Maltose Activity (%)” value [1] was 14.9%, the Maltose/glucose ratio [2, 5] was 0.56 and the Maltose/glucose ratio [2, 6] was 0.76. For the same molecule, the Maltose/glucose ratio [2, 7] was 0.37, the Maltose/glucose ratio [2, 8] was 0.47 and the Maltose/glucose ratio [2, 9] was 0.82. The Maltose/glucose ratio [2, 10] was 0.64, the Maltose/glucose ratio [3, 11] was 0.60 and the Maltose/glucose ratio [3, 12] was 0.44. The Maltose/glucose ratio [3, 13] was 0.41 and the Maltose/glucose ratio [3, 14] was 0.49.

For `O=C(O)CCCCCC(=O)O` [Pimeric acid], the “maltose activity on lowering the pH (in words)” value ([1]; pH 5.0, 6.0, 7.0, compared with phosphoric acid) was “decrease more”, the “Maltose Activity of Glucose Electrode” value ([1]; pH 5.0) was 15.2% and the “Maltose Activity of Glucose Electrode” value ([1]; pH 6.0) was 23.8%. For the same molecule, the “Maltose Activity of Glucose Electrode” value ([1]; pH 7.0) was 49.1%, the “Maltose Activity (%)” value [1] was 23.1% and the Maltose/glucose ratio [2, 5] was 0.63. The Maltose/glucose ratio [2, 6] was 0.78, the Maltose/glucose ratio [2, 7] was 0.39 and the Maltose/glucose ratio [2, 8] was 0.44. The Maltose/glucose ratio [2, 15] was 0.64, the Maltose/glucose ratio [2, 16] was 0.64 and the Maltose/glucose ratio [2, 17] was 0.71. For the same molecule, the Maltose/glucose ratio [2, 18] was 0.58, the Maltose/glucose ratio [2, 19] was 0.76 and the Maltose/glucose ratio [2, 20] was 0.58. The Maltose/glucose ratio [2, 9] was 0.86, the Maltose/glucose ratio [2, 10] was 0.80 and the “activity with respect to maltose compared with the control (in words)” value [2] was “did not decrease”. It also gave a Maltose/glucose ratio [3, 11] of 0.71, a Maltose/glucose ratio [3, 12] of 0.58 and a Maltose/glucose ratio [3, 13] of 0.44. The Maltose/glucose ratio [3, 14] was 0.58.

In the case of `O=C(O)CCCCCCC(=O)O` [Suberic acid], the “Maltose Activity (%)” value [1] is reported as 20.2%, the Maltose/glucose ratio ([2]; glutaric acid buffer pH 7.0, reagent 0.03%, substrate 4.8 mM, control 0.86) is reported as 0.68 and the Maltose/glucose ratio ([2]; glutaric acid buffer pH 7.0, reagent 0.03%, substrate 19.2 mM, control 0.94) is reported as 0.86. For the same molecule, the Maltose/glucose ratio ([2]; glutaric acid buffer pH 7.0, reagent 0.33%, substrate 4.8 mM, control 0.86) was 0.38, the Maltose/glucose ratio ([2]; glutaric acid buffer pH 7.0, reagent 0.33%, substrate 19.2 mM, control 0.94) was 0.49 and the Maltose/glucose ratio ([2]; phthalic acid buffer pH 7.0, reagent 0.017%, substrate 4.8 mM, control 0.72) was 0.66. The Maltose/glucose ratio ([2]; phthalic acid buffer pH 7.0, reagent 0.017%, substrate 19.2 mM, control 0.75) was 0.69, the Maltose/glucose ratio ([2]; phthalic acid buffer pH 7.0, reagent 0.033%, substrate 4.8 mM, control 0.72) was 0.67 and the Maltose/glucose ratio ([2]; phthalic acid buffer pH 7.0, reagent 0.033%, substrate 19.2 mM, control 0.75) was 0.62. For the same molecule, the Maltose/glucose ratio ([2]; phthalic acid buffer pH 7.0, reagent 0.066%, substrate 4.8 mM, control 0.72) was 0.70 and the Maltose/glucose ratio ([2]; phthalic acid buffer pH 7.0, reagent 0.066%, substrate 19.2 mM, control 0.75) was 0.55.

In the case of `O=C(O)CCC(=O)O` [Succinic acid], the “Maltose Activity (%)” value [1] is reported as 22.5%, the Maltose/glucose ratio [2, 5] is reported as 0.55 and the Maltose/glucose ratio [2, 6] is reported as 0.75. For the same molecule, the Maltose/glucose ratio [2, 7] was 0.35, the Maltose/glucose ratio [2, 8] was 0.52 and the Maltose/glucose ratio [2, 15] was 0.65. For the same molecule, the Maltose/glucose ratio [2, 16] was 0.56, the Maltose/glucose ratio [2, 17] was 0.73 and the Maltose/glucose ratio [2, 18] was 0.57. The Maltose/glucose ratio [2, 19] was 0.77, the Maltose/glucose ratio [2, 20] was 0.60 and the Maltose/glucose ratio [2, 9] was 0.84. The Maltose/glucose ratio [2, 10] was 0.62, the “activity with respect to maltose compared with the control (in words)” value [2] was “did not decrease” and the Maltose/glucose ratio [3, 11] was 0.65. It also gave a Maltose/glucose ratio [3, 12] of 0.47, a Maltose/glucose ratio [3, 13] of 0.34 and a Maltose/glucose ratio [3, 14] of 0.45.

B1: wild type PQQGDH: wild type PQQ dependent glucose dehydrogenase (Toyobo GLD-321) (protein, listed as Acinetobacter baumannii)
chain: DIPLTPAQFAKAKTENFDKKVILSNLNKPHALLWGPDNQIWLTERATGKILRVNPVSGSAKTVFQVPEIVSDADGQNGLLGFAFHPDFKHNPYIYISGTFKNPKSTDKELPNQTIIRRYTYNKTTDTFEKPIDLIAGLPSSKDHQSGRLVIGPDQKIYYTIGDQGRNQLAYLFLPNQAQHTPTQQELNSKDYHTYMGKVLRLNLDGSVPKDNPSFNGVVSHIYTLGHRNPQGLAFAPNGKLLQSEQGPNSDDEINLVLKGGNYGWPNVAGYKDDSGYAYANYSAATNKSQIKDLAQNGIKVATGVPVTKESEWTGKNFVPPLKTLYTVQDTYNYNDPTCGEMAYICWPTVAPSSAYVYTGGKKAIPGWENTLLVPSLKRGVIFRIKLDPTYSTTLDDAIPMFKSNNRYRDVIASPEGNTLYVLTDTAGNVQKDDGSVTHTLENPGSLIKFTYNGK
In the case of B1, the “maltose activity (ratio of the activity value when using maltose to the activity value when using glucose)” value [4] is reported as 110%.
